Test results reported in ChEMBL document CHEMBL1201862, “PubChem BioAssay data set” (2004).
Activity calls are given as the source filed them.

Legend:
HEK293 [1] = test: inhibition of NOD1-driven NF-kB reporter – cell-based, luminescence, uHTS, primary screen (AID 1578); assay type: functional; settings: Homo sapiens
HEK293 [2] = test: cells; assay type: functional, cell-based; settings: Homo sapiens
HEK293 [3] = test: cells; assay type: functional, cell-based; settings: Homo sapiens; remark: listed apart in the source
[4] = target: Nucleotide-binding oligomerization domain-containing protein 2 (Homo sapiens, UniProt Q9HC29); test: inhibition of NOD2-driven NF-kB reporter – cell-based, luminescence, uHTS, HEK293 (AID 1566); assay type: functional
HEK293 [5] = test: NOD2 signaling inhibitors in MDP-stimulated cells, cell-based, uHTS, luminescence (AID 2001); assay type: functional; settings: Homo sapiens
HEK293 [6] = test: cells; assay type: functional, cell-based; settings: Homo sapiens; remark: listed apart in the source
[7] = microbe, parasite or virus in culture; assay type: functional; settings: Mycobacterium tuberculosis
[8] = target: T1, Replicative DNA helicase DnaB (Mycobacterium tuberculosis, UniProt P9WMR3); test: DnaB intein splicing inhibitors, dose response, biochemical, cell-free fluorescence (AID 449749); assay type: functional
T1 sequence (P9WMR3 whole entry): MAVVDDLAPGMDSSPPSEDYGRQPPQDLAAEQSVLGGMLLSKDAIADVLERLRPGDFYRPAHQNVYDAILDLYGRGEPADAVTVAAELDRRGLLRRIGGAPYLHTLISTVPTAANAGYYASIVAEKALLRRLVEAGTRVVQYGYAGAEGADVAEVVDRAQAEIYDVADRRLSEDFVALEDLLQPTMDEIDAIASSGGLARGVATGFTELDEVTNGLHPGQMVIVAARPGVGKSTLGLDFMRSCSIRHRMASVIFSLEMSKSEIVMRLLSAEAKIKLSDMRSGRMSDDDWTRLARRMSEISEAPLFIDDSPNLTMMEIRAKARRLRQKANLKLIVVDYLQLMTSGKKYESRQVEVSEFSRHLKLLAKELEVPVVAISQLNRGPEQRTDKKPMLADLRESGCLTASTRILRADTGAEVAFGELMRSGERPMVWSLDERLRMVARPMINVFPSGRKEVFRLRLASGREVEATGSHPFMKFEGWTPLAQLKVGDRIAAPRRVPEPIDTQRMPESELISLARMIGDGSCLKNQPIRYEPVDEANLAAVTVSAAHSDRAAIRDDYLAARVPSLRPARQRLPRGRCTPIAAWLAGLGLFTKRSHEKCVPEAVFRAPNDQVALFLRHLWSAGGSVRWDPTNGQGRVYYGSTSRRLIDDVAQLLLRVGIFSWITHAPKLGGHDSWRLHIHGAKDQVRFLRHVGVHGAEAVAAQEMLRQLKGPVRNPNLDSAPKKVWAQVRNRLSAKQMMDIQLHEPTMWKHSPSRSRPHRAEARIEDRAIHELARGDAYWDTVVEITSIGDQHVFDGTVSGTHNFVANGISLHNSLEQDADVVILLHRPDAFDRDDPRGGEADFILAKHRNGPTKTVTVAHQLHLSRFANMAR

Protein RecA = target: T2, Protein RecA (Mycobacterium tuberculosis, UniProt P9WHJ3); test: Fluorescence Cell-Free Homogeneous Dose Retest to Identify Inhibitors of RecA-Intein Splicing Activity. [Related pubchem assays (depositor defined):AID2097, AID2223, AID489010, AID492950]; assay type: functional
T2 sequence (P9WHJ3 whole entry): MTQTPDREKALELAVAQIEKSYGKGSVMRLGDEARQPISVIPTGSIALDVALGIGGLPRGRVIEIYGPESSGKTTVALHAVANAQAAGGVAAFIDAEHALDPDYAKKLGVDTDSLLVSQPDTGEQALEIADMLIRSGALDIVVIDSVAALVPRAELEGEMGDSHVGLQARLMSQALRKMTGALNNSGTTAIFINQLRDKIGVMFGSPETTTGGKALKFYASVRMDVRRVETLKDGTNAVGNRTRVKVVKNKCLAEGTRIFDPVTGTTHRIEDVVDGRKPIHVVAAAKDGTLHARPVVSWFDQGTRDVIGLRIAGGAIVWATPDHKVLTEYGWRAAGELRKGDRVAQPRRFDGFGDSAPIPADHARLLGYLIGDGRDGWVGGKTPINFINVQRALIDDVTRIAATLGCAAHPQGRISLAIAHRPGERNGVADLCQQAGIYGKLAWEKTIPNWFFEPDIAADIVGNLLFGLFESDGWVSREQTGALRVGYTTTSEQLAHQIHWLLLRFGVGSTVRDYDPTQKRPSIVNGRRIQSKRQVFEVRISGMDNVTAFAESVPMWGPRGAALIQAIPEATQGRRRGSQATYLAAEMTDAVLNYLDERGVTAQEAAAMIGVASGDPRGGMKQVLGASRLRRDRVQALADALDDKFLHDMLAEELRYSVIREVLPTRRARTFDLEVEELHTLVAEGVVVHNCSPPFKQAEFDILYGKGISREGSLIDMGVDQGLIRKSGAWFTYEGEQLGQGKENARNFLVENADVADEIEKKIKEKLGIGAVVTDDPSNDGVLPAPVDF

Estrogen receptor = target: T3, Estrogen receptor (Homo sapiens, UniProt P03372);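 further: potency for inhibiting coactivator peptide recruitment to the receptor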
T3 sequence (P03372 whole entry): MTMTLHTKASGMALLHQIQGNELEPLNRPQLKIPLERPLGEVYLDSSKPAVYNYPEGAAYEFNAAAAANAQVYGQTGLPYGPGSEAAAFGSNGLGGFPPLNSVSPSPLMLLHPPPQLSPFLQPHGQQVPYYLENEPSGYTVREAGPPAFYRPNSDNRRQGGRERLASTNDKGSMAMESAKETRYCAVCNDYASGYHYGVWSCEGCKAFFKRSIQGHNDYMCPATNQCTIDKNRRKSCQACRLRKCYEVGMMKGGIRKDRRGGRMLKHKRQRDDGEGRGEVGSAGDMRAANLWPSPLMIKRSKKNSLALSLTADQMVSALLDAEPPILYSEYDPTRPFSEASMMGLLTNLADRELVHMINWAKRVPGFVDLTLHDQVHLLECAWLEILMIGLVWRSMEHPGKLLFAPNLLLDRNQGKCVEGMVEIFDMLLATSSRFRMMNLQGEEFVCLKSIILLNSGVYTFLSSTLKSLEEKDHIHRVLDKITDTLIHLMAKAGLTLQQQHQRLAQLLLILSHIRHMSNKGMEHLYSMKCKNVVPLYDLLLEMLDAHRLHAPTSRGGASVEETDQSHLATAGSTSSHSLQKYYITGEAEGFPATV

[9] = target: E3 ubiquitin-protein ligase XIAP (Homo sapiens, UniProt P98170); test: Counter Screen using XIAP-Bir3 for Chemical Antagonists of Bir1/2 domains of IAP-family anti-apoptotic proteins. [Related pubchem assays (depositor defined):AID1018, AID1449, AID1514, AID1638, AID1749, AID1750, AID488957, AID488963]
E3 ubiquitin-protein ligase XIAP, sequence (P98170 whole entry): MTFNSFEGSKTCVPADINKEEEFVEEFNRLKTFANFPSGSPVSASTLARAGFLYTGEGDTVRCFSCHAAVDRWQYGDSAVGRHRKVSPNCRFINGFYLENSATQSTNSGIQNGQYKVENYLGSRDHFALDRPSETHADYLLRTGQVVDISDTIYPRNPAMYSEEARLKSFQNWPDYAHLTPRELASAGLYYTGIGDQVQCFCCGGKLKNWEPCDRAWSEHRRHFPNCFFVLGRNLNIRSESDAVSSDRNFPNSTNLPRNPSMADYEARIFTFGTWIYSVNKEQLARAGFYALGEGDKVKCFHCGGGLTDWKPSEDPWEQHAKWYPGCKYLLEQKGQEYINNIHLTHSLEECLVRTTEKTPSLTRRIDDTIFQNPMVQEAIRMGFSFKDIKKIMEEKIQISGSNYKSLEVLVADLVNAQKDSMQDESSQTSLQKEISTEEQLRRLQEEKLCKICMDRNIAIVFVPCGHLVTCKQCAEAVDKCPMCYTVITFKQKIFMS

[10] = target: DNA dC->dU-editing enzyme APOBEC-3A (Homo sapiens, UniProt P31941); test: A3A deaminase inhibition for selectivity – biochemical, dose response (AID 504722); assay type: functional
DNA dC->dU-editing enzyme APOBEC-3A, sequence (P31941 whole entry): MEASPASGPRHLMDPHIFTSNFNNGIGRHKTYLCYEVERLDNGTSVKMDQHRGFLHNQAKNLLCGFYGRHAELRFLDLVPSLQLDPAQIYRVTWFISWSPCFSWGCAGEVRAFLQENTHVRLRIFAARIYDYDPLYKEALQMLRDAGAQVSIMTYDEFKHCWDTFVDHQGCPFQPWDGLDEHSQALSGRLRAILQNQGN

[11] = target: DNA dC->dU-editing enzyme APOBEC-3G (Homo sapiens, UniProt Q9HC16); test: Dose Response confirmation of small molecule APOBEC3G DNA Deaminase Inhibitors via a fluorescence-based single-stranded DNA deaminase assay. [Related pubchem assays (depositor defined):AID493012, AID493028]; assay type: functional
DNA dC->dU-editing enzyme APOBEC-3G, sequence (Q9HC16 whole entry): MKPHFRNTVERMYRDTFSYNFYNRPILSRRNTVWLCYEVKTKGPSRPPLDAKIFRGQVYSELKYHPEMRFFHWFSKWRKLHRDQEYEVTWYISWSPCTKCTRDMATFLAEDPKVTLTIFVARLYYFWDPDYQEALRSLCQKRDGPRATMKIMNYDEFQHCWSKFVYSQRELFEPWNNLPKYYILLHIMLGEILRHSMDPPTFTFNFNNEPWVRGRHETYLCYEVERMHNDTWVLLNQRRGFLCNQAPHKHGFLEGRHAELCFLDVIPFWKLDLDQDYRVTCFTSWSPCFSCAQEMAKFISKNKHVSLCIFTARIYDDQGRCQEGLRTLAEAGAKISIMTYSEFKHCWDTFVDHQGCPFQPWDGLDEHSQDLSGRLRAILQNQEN

[12] = target: T4, Voltage-gated N-type calcium channel alpha-1B subunit/Amyloid beta A4 precursor protein-binding family A member 1 (Homo sapiens, UniProt Q00975+Q02410); assay type: protein assay
T4 sequence (Q00975 whole entry): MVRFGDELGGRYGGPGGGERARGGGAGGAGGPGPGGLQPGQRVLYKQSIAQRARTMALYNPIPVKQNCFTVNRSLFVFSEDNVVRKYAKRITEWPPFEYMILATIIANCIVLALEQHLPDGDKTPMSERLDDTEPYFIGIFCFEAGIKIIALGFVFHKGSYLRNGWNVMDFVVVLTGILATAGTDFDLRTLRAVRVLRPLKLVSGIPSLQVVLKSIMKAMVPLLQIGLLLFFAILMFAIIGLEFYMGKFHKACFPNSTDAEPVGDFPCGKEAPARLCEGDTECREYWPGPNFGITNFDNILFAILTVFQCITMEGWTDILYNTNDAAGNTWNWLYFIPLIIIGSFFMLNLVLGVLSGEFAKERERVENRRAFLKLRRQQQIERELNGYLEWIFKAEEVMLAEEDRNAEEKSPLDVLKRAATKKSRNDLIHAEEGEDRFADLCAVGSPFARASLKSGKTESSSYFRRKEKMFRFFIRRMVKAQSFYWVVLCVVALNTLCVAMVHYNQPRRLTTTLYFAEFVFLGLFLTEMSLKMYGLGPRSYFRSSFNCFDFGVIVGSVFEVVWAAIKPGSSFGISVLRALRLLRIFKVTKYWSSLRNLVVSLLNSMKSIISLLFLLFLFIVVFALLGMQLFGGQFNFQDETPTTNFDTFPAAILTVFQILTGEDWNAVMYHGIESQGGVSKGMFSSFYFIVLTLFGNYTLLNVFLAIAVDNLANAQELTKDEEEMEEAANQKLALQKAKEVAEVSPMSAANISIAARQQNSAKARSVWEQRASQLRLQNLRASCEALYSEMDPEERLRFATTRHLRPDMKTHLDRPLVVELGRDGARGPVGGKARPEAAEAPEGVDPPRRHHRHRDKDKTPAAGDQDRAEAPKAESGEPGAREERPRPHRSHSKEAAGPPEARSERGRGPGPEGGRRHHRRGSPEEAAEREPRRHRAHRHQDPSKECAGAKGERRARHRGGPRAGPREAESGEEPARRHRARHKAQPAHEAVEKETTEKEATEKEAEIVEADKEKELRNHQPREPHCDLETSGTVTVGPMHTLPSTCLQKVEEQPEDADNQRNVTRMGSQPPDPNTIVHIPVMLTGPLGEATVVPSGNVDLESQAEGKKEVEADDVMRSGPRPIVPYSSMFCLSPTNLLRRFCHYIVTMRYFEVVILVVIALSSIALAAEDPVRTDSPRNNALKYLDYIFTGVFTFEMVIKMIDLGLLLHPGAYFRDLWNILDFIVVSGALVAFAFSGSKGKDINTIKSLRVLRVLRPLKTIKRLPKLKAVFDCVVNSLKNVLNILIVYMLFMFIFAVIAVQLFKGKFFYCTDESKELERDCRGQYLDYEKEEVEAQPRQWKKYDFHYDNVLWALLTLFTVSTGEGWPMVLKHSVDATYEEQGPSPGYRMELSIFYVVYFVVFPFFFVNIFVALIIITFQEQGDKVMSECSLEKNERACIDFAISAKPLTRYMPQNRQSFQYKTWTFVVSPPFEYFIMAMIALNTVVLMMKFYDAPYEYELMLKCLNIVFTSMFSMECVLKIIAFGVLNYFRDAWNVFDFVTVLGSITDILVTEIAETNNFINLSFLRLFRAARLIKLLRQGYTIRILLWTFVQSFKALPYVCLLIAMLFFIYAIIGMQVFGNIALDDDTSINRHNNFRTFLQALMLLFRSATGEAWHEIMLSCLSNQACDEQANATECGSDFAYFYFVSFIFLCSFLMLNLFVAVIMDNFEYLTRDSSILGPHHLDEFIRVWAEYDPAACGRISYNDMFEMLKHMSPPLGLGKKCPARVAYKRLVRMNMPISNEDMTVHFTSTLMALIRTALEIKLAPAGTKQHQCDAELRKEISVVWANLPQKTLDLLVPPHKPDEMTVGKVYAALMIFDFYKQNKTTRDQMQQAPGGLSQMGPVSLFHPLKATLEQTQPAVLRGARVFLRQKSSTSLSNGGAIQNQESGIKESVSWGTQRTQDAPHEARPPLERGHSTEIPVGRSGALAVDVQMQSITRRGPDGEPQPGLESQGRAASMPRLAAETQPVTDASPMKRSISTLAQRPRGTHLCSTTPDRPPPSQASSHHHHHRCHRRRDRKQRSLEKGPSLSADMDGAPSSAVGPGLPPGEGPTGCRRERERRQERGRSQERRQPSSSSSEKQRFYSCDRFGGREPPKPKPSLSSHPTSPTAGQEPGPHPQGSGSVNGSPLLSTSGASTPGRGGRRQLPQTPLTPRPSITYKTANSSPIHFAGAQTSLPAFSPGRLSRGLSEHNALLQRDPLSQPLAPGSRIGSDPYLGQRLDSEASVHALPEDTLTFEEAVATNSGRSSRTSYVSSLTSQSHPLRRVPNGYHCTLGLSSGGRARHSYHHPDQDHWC
T4 sequence (Q02410 whole entry): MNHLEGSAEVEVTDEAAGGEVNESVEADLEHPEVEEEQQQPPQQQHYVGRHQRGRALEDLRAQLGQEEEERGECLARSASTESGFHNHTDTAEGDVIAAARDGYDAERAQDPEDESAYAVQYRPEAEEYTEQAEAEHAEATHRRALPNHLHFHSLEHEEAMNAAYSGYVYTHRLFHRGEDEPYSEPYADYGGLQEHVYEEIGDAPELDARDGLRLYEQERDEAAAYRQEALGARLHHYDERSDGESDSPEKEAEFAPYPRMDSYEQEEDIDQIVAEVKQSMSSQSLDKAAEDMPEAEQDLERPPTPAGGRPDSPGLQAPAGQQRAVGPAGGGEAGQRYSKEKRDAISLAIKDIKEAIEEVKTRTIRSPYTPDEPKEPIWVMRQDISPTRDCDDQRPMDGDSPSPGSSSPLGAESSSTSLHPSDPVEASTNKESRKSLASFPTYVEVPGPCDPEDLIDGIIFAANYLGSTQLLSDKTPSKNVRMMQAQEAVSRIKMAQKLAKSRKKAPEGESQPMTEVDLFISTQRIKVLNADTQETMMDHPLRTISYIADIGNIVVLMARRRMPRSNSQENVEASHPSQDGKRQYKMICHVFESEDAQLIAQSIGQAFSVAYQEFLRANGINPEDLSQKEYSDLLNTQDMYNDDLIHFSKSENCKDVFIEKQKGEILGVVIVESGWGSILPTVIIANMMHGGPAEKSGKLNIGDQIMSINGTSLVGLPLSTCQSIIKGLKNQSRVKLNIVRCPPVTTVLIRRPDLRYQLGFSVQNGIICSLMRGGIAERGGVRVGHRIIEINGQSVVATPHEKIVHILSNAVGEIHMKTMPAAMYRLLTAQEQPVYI

[13] = target: T4, Voltage-gated N-type calcium channel alpha-1B subunit/Amyloid beta A4 precursor protein-binding family A member 1; assay type: protein assay; remark: listed apart in the source
[14] = target: T5, Small ubiquitin-related modifier 1 (Homo sapiens, UniProt P63165); test: SUMO1 protein interaction blockers, potency – biochemical, fluorescence polarization, uHTS hits, dose response (AID 624382); assay type: functional; settings: read-out: IC50_Mean
T5 sequence (P63165 whole entry): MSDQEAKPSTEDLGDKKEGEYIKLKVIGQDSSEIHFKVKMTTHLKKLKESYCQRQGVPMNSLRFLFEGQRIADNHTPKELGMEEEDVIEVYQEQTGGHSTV

[15] = target: T5, Small ubiquitin-related modifier 1; test: SUMO1 protein-protein binding blockers, potency – biochemical, FRET, dose response (AID 624383); assay type: functional; settings: read-out: IC50_Mean
[16] = target: T6, Microphthalmia-associated transcription factor (Homo sapiens, UniProt O75030); test: reducers of TRPM1 reporter luminescence, concentration series – cell-based, SK-MEL-5, cherry-picked, set 3, MITF inhibitor project, dose response (AID 493073); assay type: functional;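 further: SK-MEL-5 melanoma cells with luciferase driven by the MITF target TRPM1 promoter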
T6 sequence (O75030 whole entry): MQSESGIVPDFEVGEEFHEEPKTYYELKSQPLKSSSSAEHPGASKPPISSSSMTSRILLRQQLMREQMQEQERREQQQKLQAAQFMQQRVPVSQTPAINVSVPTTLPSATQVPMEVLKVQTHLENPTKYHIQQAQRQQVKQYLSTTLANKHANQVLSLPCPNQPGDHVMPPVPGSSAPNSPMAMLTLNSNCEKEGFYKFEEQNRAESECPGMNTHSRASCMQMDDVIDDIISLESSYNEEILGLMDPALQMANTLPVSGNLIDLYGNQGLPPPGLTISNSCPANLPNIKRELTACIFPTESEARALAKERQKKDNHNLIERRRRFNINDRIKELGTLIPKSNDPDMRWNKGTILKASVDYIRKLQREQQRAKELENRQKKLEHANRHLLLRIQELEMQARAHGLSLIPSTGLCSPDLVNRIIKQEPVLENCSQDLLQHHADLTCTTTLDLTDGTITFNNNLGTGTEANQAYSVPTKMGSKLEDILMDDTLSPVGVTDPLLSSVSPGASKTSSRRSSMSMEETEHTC

[17] = Trypanosoma cruzi growth suppression in host cells – NIH3T3 host cells, beta-gal luminescence, confirmation (AID 2044); assay type: functional, cell-based;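 further: intracellular parasites grown in NIH/3T3 mouse fibroblasts as host cells; luminescent beta-galactosidase reporter signal from transgenic T. cruzi replicating inside host cells; inhibitors lower the luminescence signal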
[18] = NIH3T3 cell viability loss – ATP luminescence, mouse fibroblasts, counter-screen, dose response (AID 2010); assay type: functional, cell-based;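 further: cells exposed to compound for about 90 hours before reading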
CAAX prenyl protease 2 = target: T7, CAAX prenyl protease 2 (Saccharomyces cerevisiae S288c, UniProt Q03530); assay type: biochemical
T7 sequence (Q03530 whole entry): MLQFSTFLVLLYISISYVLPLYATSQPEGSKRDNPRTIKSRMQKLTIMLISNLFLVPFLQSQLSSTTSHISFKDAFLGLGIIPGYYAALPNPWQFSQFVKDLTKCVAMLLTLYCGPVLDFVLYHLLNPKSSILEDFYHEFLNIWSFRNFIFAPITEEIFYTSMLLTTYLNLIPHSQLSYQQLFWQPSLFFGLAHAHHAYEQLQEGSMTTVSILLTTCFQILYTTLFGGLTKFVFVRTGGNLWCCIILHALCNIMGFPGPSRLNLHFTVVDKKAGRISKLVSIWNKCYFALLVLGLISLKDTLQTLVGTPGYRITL

Fatty acid synthase = Fatty acid synthase (Homo sapiens, UniProt P49327); test: inhibition of human FAS-TE enzyme activity – biochemical, kinetic fluorescence intensity, dose response (AID 624326); assay type: functional;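 further: rate of fluorescence rise from hydrolysis of a fluorogenic O-methyl fluorescein ester substrate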
Large T antigen = Large T antigen (Simian virus 40, UniProt P03070); assay type: functional, Betapolyomavirus macacae;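 further: Confirmatory-stage PubChem screen for compounds that inhibit SV40 T antigen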
Large T antigen, sequence (P03070 whole entry): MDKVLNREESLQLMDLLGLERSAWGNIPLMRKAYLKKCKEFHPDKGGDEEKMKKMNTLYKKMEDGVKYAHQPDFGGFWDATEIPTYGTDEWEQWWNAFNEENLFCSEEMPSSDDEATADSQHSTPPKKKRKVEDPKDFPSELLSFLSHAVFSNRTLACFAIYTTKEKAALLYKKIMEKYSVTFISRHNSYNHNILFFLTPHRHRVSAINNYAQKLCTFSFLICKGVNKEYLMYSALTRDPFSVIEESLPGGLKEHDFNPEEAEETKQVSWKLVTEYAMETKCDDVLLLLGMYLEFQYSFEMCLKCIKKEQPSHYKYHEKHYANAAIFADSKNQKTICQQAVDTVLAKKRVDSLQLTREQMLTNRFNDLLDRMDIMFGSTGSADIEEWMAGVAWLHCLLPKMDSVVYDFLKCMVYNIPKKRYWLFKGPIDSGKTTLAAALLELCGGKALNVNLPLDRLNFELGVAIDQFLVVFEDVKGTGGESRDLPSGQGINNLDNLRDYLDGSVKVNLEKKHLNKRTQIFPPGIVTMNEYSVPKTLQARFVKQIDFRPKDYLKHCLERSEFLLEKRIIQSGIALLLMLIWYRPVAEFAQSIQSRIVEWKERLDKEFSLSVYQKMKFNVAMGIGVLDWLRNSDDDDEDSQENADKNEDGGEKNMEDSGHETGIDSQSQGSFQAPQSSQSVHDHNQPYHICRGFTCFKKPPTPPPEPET

[19] = target: T8, Rac GTPase-activating protein 1 (Homo sapiens, UniProt Q9H0H5); test: blockers of MgcRacGAP-driven Rac1 GTP hydrolysis – biochemical, ADP Hunter fluorescence, primary and confirmatory, confirmation (AID 624330); assay type: functional
T8 sequence (Q9H0H5 whole entry): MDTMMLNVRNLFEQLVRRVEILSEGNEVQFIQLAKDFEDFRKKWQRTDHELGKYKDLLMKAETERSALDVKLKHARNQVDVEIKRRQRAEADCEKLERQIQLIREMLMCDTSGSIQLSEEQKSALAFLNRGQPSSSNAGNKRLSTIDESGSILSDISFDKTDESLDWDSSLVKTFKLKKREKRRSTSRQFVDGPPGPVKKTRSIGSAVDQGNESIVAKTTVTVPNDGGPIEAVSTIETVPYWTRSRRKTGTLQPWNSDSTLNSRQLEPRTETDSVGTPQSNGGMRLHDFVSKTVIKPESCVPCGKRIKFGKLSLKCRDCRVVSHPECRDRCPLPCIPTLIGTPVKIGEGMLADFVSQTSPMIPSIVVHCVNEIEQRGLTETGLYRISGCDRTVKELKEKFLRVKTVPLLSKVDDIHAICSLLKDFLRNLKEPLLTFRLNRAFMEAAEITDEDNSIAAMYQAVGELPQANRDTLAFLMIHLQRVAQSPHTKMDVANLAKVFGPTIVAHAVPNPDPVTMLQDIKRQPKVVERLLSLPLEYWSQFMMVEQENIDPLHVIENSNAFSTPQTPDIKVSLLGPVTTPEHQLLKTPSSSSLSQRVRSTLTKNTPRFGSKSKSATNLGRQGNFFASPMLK

In the case of COc1ccc(-n2nc3c(c2NC(=O)CCl)CSC3)cc1, the EC50 (HEK293 [1]) is reported as 13.1 µM (active), the IC50 (HEK293 [2]) is reported as 7.89 µM (active) and the IC50 (HEK293 [3]) is reported as > 20 µM (inactive). The EC50 [4] was > 20 µM (inactive), the IC50 (HEK293 [5]) was 14.8 µM (inactive) and the IC50 (HEK293 [6]) was > 20 µM (inactive). The CC50 [7] was 18 µM (active), the AC50 [8] was 13.6 µM (active) and the EC50 (Protein RecA) was > 380 µM (inconclusive).
For O=C(NCc1ccc(Cl)cc1)c1cc(-c2cccs2)on1, the IC50 (Estrogen receptor) was > 50 µM (not active) and the IC50 [9] was > 20 µM (inactive).
In the case of S=c1nc(-c2ccccc2)n(-c2ccccc2)[nH]1, the IC50 [10] is reported as > 100 µM (inactive) and the IC50 [11] is reported as 7.02 µM (active).
With CC(OC(=O)c1ccc(NC(=O)CC#N)cc1)C(=O)Nc1ccc(Oc2ccccc2)cc1 (configuration not stated) the IC50 [12] was 8.36 µM (active), the IC50 [13] was > 50 µM (inactive) and the IC50 [14] was > 66.6 µM (inactive). The IC50 [15] was 17.1 µM (active).
With C[C@H]1CCC[C@]2(C)C[C@H]3OC(=O)C(CN4CCCCCC4)[C@H]3C=C12 (some centres not stated) the AC50 [16] was 13.9 µM (active).
With CCOC(=O)c1nnn(-c2ccc([N+](=O)[O-])cc2[N+](=O)[O-])c1C the EC50 [17] was 0.647 µM (active), the EC50 [18] was > 60 µM (not active) and the AC50 [16] was 8.85 µM (active).
In the case of O=S(=O)(c1ccc(-c2csc(Nc3ccc(F)cc3)n2)cc1)N1CCCC1, the AC50 (CAAX prenyl protease 2) is reported as 19.8 µM (active) and the IC50 (Fatty acid synthase) is reported as 15.2 µM (active).
In the case of Cc1cc(-c2nnc(S)n2/N=C/c2cccs2)[nH]n1, the IC50 (Large T antigen) is reported as 55 µM (active), the IC50 [10] is reported as > 100 µM (inactive) and the IC50 [11] is reported as 2.9 µM (active). The IC50 [19] was 87.8 µM (active).
